Values of other authors, collected in US7691599B2, “Mammalian genes involved in viral infection and tumor suppression” (Zirus, Inc., priority 2002, dated 2010).
Where two headings read alike, the source gives them in different places.

What was measured:
[1] = for plasma concentration at 3 h: 3 h after single oral dose of 300 mg V11294A; for AUC(0, infinity) / t½ / Cmax: plasma; for AUC(0, infinity) / t½: single oral dose of 300 mg V11294A; for Cmax: single oral fasting dose of 300 mg V11294A, mean +/− s.d.
[2] = system: tumour necrosis factor (TNF) release in whole blood
[3] = system: mononuclear cell proliferation; details: whole blood, 3 h (P<<0.05)
[4] = biological target: T1, I747T mutant NR3C1 (glucocorticoid receptor) (Homo sapiens, UniProt P04150, I747T)
T1 sequence (P04150 1-777 I747T): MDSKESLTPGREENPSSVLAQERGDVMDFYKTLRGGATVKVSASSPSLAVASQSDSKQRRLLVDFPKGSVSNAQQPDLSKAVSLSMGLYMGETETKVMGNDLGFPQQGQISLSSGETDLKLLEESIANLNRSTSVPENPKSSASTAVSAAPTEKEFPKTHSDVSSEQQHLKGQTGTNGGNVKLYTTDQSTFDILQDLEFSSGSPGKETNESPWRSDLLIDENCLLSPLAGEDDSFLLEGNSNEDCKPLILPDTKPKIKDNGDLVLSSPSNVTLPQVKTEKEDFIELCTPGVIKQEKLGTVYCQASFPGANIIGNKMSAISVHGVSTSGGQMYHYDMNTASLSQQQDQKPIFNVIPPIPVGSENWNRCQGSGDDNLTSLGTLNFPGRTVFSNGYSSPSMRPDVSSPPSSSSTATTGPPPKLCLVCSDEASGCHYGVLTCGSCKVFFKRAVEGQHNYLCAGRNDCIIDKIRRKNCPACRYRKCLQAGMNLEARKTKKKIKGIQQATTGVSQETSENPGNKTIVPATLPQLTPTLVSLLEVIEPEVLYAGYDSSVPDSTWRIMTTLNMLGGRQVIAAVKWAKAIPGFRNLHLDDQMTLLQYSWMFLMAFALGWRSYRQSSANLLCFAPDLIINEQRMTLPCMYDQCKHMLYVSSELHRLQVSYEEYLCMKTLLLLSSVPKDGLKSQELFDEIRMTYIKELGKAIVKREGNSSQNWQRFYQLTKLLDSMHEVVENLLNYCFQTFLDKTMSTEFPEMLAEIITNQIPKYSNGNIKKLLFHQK

[5] = biological target: T2, monoamine oxidase type A (Mus musculus, UniProt Q64133); details: transgenic mice with reduced glucocorticoid receptor function
T2 construct: from tissue; host or cells: whole animal: transgenic mice expressing antisense RNA against glucocorticoid receptor mRNA
T2 sequence (Q64133 1-526): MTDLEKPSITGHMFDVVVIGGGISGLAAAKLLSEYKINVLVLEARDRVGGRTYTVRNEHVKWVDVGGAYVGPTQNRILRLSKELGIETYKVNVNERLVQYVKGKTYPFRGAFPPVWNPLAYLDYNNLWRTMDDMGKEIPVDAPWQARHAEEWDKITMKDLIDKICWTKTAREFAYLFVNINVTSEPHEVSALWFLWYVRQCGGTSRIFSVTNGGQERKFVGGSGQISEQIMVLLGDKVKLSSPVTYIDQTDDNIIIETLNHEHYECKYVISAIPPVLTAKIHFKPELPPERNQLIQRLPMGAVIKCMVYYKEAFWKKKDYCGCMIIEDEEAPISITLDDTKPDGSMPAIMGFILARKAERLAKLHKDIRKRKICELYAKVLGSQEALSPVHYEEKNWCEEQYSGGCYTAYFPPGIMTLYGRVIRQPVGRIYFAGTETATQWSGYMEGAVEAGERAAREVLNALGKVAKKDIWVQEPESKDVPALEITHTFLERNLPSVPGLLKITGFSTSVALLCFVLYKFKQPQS

[6] = biological target: T3, ADAM 10 (Bos taurus, UniProt Q10741); details: ADAM 10 purified from bovine spleen membranes
T3 construct: purified a protease with characteristics of TNFalpha convertase from bovine spleen membranes; from tissue; host or cells: bovine spleen membranes
T3 sequence (Q10741 214-748): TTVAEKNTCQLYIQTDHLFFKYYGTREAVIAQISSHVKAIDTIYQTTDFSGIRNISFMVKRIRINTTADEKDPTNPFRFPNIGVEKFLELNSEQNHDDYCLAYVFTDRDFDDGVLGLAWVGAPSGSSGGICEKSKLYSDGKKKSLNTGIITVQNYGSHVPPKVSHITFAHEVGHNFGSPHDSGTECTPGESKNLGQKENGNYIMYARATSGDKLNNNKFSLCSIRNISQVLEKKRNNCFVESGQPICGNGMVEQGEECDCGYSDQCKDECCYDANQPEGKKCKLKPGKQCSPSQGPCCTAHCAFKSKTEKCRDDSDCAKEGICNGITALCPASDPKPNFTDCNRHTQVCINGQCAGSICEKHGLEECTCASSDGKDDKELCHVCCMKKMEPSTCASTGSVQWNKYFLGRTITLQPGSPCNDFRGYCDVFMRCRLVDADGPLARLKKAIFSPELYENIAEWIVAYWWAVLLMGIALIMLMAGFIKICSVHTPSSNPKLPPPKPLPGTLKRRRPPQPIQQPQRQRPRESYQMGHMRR

Compound: COc1ccc(Cn2cnc(N)c3nc(C(C)C)nc2-3)cc1OC1CCCC1 [V10332, 3-(3-cyclopentyloxy-4-methoxy-benzyl)-8-isopropyl-3H-purin-6-ylamine]
- plasma concentration at 3 h [1]: 860 ± 300 ng/mL
- AUC(0, infinity) [1]: 18600 ± 8500 ng·h/mL
- t½ [1]: 9.5 ± 1.7 h
- Cmax ([1]; healthy volunteers): 1000 ± 400 ng/mL

Compound: CCNc1ncn(Cc2ccc(OC)c(OC3CCCC3)c2)c2nc(C(C)C)nc1-2.Cl [V11294A, 3-(3-cyclopentyloxy-4-methoxybenzyl)-6-ethylamino-8-isopropyl-3H purine hydrochloride]
- plasma concentration at 3 h [1]: 1300 ± 330 ng/mL
- AUC(0, infinity) [1]: 18100 ± 6100 ng·h/mL
- t½ [1]: 9.7 ± 3.9 h
- Cmax ([1]; healthy volunteers): 1398 ± 298 ng/mL
- adverse reactions ([1]; single oral administration, 300 mg, healthy volunteers): No adverse reactions were noted
- LPS-induced TNF release ([2]; 3 h post ingestion (P<<0.001)): significant reduction
- LPS-induced TNF release ([2]; 24 h post ingestion (P<<0.05)): significant reduction
- amount of TNF released in response to LPS ([2]; LPS 4 ng ml−1, whole blood, 3 h postdose (before 778+/−87, P=0.02)): 566 ± 72 pmol/mL
- PHA-induced proliferation [3]: inhibited

Compound: C[C@]12C[C@H](O)[C@H]3[C@@H](CCC4=CC(=O)CC[C@@]43C)[C@@H]1CC[C@@H]2C(=O)CO [corticosterone]
- transactivation by I747T mutant NR3C1 [4]: completely inactive

Compound: C[C@]12CCC(=O)C=C1CC[C@@H]1[C@@H]2[C@@H](O)C[C@@]2(C)[C@H]1CC[C@]2(O)C(=O)CO [cortisol]
- transactivation by I747T mutant NR3C1 [4]: completely inactive

Compound: O=C(NCCN1CCOCC1)c1ccc(Cl)cc1 [moclobemide]
- behavioral deficits [5]: reversed the behavioral deficits

Compound: CC(C)C[C@H](NP(=O)(O)O[C@@H]1O[C@@H](C)[C@H](O)[C@@H](O)[C@H]1O)C(=O)N[C@@H](Cc1c[nH]c2ccccc12)C(=O)O [phosphoramidon]
- sensitivity of the enzyme to inhibitor [6]: insensitive
